Consider one compound from paper PMC11012793, “Mulberry Leaf Compounds and Gut Microbiota in Alzheimer’s Disease and Diabetes: A Study Using Network Pharmacology, Molecular Dynamics Simulation, and Cellular Assays” (International Journal of Molecular Sciences, 2024).

Structures are written as SMILES.

This assay addresses T1, protein tyrosine phosphatase 1B (PTP1B) (Homo sapiens, UniProt P18031).
T1 construct: gene PTPN1; catalytic domain (Met1-Glu298) of PTP1B (ΔPTP1B)
T1 sequence (P18031 1-298): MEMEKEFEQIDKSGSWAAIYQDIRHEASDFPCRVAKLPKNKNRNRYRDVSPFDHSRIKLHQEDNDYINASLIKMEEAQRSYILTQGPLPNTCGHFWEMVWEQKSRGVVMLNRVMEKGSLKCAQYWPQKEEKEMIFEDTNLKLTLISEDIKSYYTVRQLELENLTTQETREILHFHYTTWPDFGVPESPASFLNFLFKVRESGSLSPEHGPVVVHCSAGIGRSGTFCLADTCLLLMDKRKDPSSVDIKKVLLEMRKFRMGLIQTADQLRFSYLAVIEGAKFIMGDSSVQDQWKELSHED
The assay can be described thus: p-NPP phosphatase assay with purified recombinant PTP1B catalytic domain, absorbance at […] nm. In kind it is biochemical.

On to `O=c1c(O)c(-c2ccc(O)cc2)oc2cc(O)cc(O)c12` [kaempferol], for which the IC50 was found to be 279 µM.

A word on the IC50: it is the point on the concentration scale where inhibition reaches its midpoint.
